One assay concerns Bacillus subtilis. In words: Antibacterial activity against Bacillus subtilis MTCC 441 assessed as growth inhibition at 100 ug/mL after 14 hrs by cup plate method. It counts as functional. The conditions noted are these: MTCC 441, 14 h, read-out: DIZ.
The subject of assay [1] is Staphylococcus epidermidis. In words: Antibacterial activity against Staphylococcus epidermidis MTCC 435 assessed as growth inhibition at 100 ug/mL after 14 hrs by cup plate method. The format is functional. The conditions noted are these: MTCC 435, 14 h, read-out: DIZ.
The next assay relates to Aspergillus fumigatus. In words: Antifungal activity against Aspergillus fumigatus MTCC 343 assessed as growth inhibition at 100 ug/mL after 30 hrs by cup plate method. It counts as functional. The conditions noted are these: MTCC 343, 30 h, read-out: DIZ.
The test system of the next assay is Escherichia coli. The assay can be described thus: Antibacterial activity against Escherichia coli MTCC 443 assessed as growth inhibition at 100 ug/mL after 14 hrs by cup plate method. The format is functional. The conditions noted are these: MTCC 443, 14 h, read-out: DIZ.
The subject of a further assay is Aspergillus flavus. In words: Antifungal activity against Aspergillus flavus MTCC 277 assessed as growth inhibition at 100 ug/mL after 30 hrs by cup plate method. The format is functional. The conditions noted are these: MTCC 277, 30 h, read-out: DIZ.
For another assay, the system named is Salmonella typhi. In words: Antibacterial activity against Salmonella typhi MTCC 733 assessed as growth inhibition at 100 ug/mL after 14 hrs by cup plate method. The format is functional, Salmonella enterica subsp. enterica serovar Typhi. The conditions noted are these: Salmonella enterica, MTCC 733, 14 h; read-out: DIZ.
A further assay concerns Aspergillus niger. In words: Antifungal activity against Aspergillus niger MTCC 282 assessed as growth inhibition at 100 ug/mL after 30 hrs by cup plate method. It counts as functional. The conditions noted are these: MTCC 282, 30 h, read-out: DIZ.
The test system of the next assay is Candida albicans. The assay can be described thus: Antifungal activity against Candida albicans MTCC 227 assessed as growth inhibition at 100 ug/mL after 30 hrs by cup plate method. The conditions noted are these: MTCC 227, 30 h, read-out: DIZ. The format is functional.
The next assay deals with Staphylococcus aureus. The assay can be described thus: Antibacterial activity against Staphylococcus aureus MTCC 096 assessed as growth inhibition at 100 ug/mL after 14 hrs by cup plate method. It counts as functional. The conditions noted are these: MTCC 096, 14 h, read-out: DIZ.
Another assay concerns Klebsiella pneumoniae. In words: Antibacterial activity against Klebsiella pneumoniae MTCC 432 assessed as growth inhibition at 100 ug/mL after 14 hrs by cup plate method. It counts as functional. The conditions noted are these: MTCC 432, 14 h, read-out: DIZ.
The next assay relates to Pseudomonas aeruginosa. In words: Antibacterial activity against Pseudomonas aeruginosa MTCC 424 assessed as growth inhibition at 100 ug/mL after 14 hrs by cup plate method. It counts as functional. The conditions noted are these: MTCC 424, 14 h, read-out: DIZ.

In the case of `Cc1cc(=O)oc2cc(OCCCCCCn3cc(CN4CCCC4)nn3)ccc12`, the zone of inhibition at 100 µg/mL in the assay with Bacillus subtilis was determined as 14 mm; in [1] it was 14 mm; in the assay on Aspergillus fumigatus, 18.5 mm; in the assay with Escherichia coli, 11.7 mm; with Aspergillus flavus, 14.7 mm; in the assay on Salmonella typhi, 15.2 mm. Also, the zone of inhibition at 100 µg/mL with Aspergillus niger came to 12.5 mm; with Candida albicans it was 14.4 mm; with Staphylococcus aureus it was 13.6 mm; in the assay on Klebsiella pneumoniae, 14.4 mm; in the assay with Pseudomonas aeruginosa it was 14.8 mm.
In the case of `Cc1cc(=O)oc2cc(OCCCCCCn3cc(CN4CCCCC4)nn3)ccc12`, the zone of inhibition at 100 µg/mL in the assay on Bacillus subtilis was 12.6 mm; in [1], 13.1 mm; in the assay on Aspergillus fumigatus, 18.8 mm; with Escherichia coli it was 12.8 mm; in the assay with Aspergillus flavus it was 12.5 mm; in the assay with Salmonella typhi, 14.4 mm. Moreover, the zone of inhibition at 100 µg/mL worked out at 11.9 mm with Aspergillus niger; 14 mm in the assay on Candida albicans; 12.9 mm with Staphylococcus aureus; 12.9 mm in the assay on Klebsiella pneumoniae; 13.2 mm with Pseudomonas aeruginosa.
Consider `Cc1cc(=O)oc2cc(OCCCCCCn3cc(CN4CCOCC4)nn3)ccc12`, for which the zone of inhibition at 100 µg/mL with Bacillus subtilis amounted to 15.4 mm; in assay [1] it was 13.4 mm; with Aspergillus fumigatus, 16.9 mm; in the assay on Escherichia coli, 14.4 mm; in the assay on Aspergillus flavus, 16.8 mm; in the assay on Salmonella typhi, 13.5 mm. Moreover, the zone of inhibition at 100 µg/mL stood at 12.9 mm in the assay with Aspergillus niger; 13.5 mm in the assay on Candida albicans; 11.7 mm with Staphylococcus aureus; 14.6 mm with Klebsiella pneumoniae; 14.5 mm in the assay on Pseudomonas aeruginosa.
As for `Cc1cc(=O)oc2cc(OCCCCCCn3cc(CN4CCN(C)CC4)nn3)ccc12`, the zone of inhibition at 100 µg/mL in the assay with Bacillus subtilis was 12.4 mm; in assay [1], 14.6 mm; with Aspergillus fumigatus it was 18.4 mm; with Escherichia coli, 14.7 mm; in the assay on Aspergillus flavus it was 14.4 mm; in the assay on Salmonella typhi, 13.1 mm. The zone of inhibition at 100 µg/mL was found to be 14 mm in the assay with Aspergillus niger; 13.6 mm in the assay on Candida albicans; 12.5 mm in the assay on Staphylococcus aureus; 12.4 mm with Klebsiella pneumoniae; 13.9 mm in the assay on Pseudomonas aeruginosa.
For `CC(=O)N1CCN(Cc2cn(CCCCCCOc3ccc4c(C)cc(=O)oc4c3)nn2)CC1`, the zone of inhibition at 100 µg/mL amounted to 12.4 mm with Bacillus subtilis; 14.8 mm in [1]; 18.2 mm in the assay on Aspergillus fumigatus; 13.3 mm in the assay with Escherichia coli; 12.9 mm in the assay on Aspergillus flavus; 12.1 mm in the assay with Salmonella typhi. The zone of inhibition at 100 µg/mL amounted to 12.7 mm in the assay on Aspergillus niger; 14.7 mm in the assay with Candida albicans; 14.4 mm with Staphylococcus aureus; 14.4 mm in the assay on Klebsiella pneumoniae; 17.1 mm in the assay with Pseudomonas aeruginosa.
Regarding `Cc1cc(=O)oc2cc(OCCCCCCn3cc(CN4CCN(Cc5ccc6c(c5)OCO6)CC4)nn3)ccc12`, the zone of inhibition at 100 µg/mL with Bacillus subtilis was found to be 12.5 mm; in [1], 11.9 mm; in the assay on Aspergillus fumigatus, 20.6 mm; with Escherichia coli, 12.3 mm; with Aspergillus flavus, 15 mm; with Salmonella typhi it was 14.1 mm. In addition, the zone of inhibition at 100 µg/mL turned out to be 11.9 mm in the assay with Aspergillus niger; 16.8 mm with Candida albicans; 14 mm in the assay on Staphylococcus aureus; 13.9 mm in the assay with Klebsiella pneumoniae; 14.9 mm in the assay with Pseudomonas aeruginosa.
Turning to `Cc1cc(=O)oc2cc(OCCCCn3cc(CN4C(=O)c5ccccc5C4=O)nn3)ccc12`, the zone of inhibition at 100 µg/mL in the assay on Bacillus subtilis is 12.9 mm; in [1], 12.4 mm; with Aspergillus fumigatus, 19 mm; in the assay on Escherichia coli, 12.7 mm; in the assay with Aspergillus flavus, 13.8 mm; in the assay on Salmonella typhi it was 12.2 mm. Further, the zone of inhibition at 100 µg/mL is 12.8 mm in the assay with Aspergillus niger; 16.5 mm in the assay with Candida albicans; 12.8 mm in the assay with Staphylococcus aureus; 12.4 mm with Klebsiella pneumoniae; 13.9 mm in the assay on Pseudomonas aeruginosa.
`Cc1cc(=O)oc2cc(OCCCCCCn3cc(CN4C(=O)c5ccccc5C4=O)nn3)ccc12`: the zone of inhibition at 100 µg/mL was determined as 12.8 mm with Bacillus subtilis; 12.6 mm in [1]; 18.5 mm in the assay with Aspergillus fumigatus; 13.4 mm with Escherichia coli; 15.2 mm in the assay on Aspergillus flavus; 12.4 mm in the assay with Salmonella typhi. The zone of inhibition at 100 µg/mL was 13.9 mm in the assay on Aspergillus niger; 14.9 mm in the assay with Candida albicans; 12.9 mm in the assay with Staphylococcus aureus; 12.9 mm in the assay on Klebsiella pneumoniae; 12.8 mm in the assay with Pseudomonas aeruginosa.
For the compound `Cc1cc(=O)oc2cc(OCc3cn(CCN4C(=O)c5ccccc5C4=O)nn3)ccc12`, the zone of inhibition at 100 µg/mL in the assay with Bacillus subtilis was found to be 10.5 mm; in assay [1], 12.4 mm; in the assay with Aspergillus fumigatus, 19.5 mm; with Escherichia coli, 14.5 mm; in the assay on Aspergillus flavus, 12.5 mm; in the assay with Salmonella typhi, 11.9 mm. Besides, the zone of inhibition at 100 µg/mL in the assay with Aspergillus niger was determined as 14.4 mm; with Candida albicans, 20.2 mm; with Staphylococcus aureus it was 13 mm; in the assay on Klebsiella pneumoniae it was 13.3 mm; in the assay on Pseudomonas aeruginosa, 13 mm.
Turning to `Cc1cc(=O)oc2cc(OCc3cn(CCCN4C(=O)c5ccccc5C4=O)nn3)ccc12`, the zone of inhibition at 100 µg/mL in the assay with Bacillus subtilis is 12.5 mm; in [1] it was 11.4 mm; with Aspergillus fumigatus, 21.3 mm; in the assay on Escherichia coli, 12.6 mm; in the assay with Aspergillus flavus it was 16.4 mm; in the assay with Salmonella typhi it was 12.3 mm. Besides, the zone of inhibition at 100 µg/mL in the assay with Aspergillus niger was 13.2 mm; in the assay on Candida albicans, 18.6 mm; with Staphylococcus aureus, 12.8 mm; in the assay with Klebsiella pneumoniae, 14.4 mm; in the assay on Pseudomonas aeruginosa it was 13.1 mm.
As for `Cc1cc(=O)oc2cc(OCc3cn(CCCCN4C(=O)c5ccccc5C4=O)nn3)ccc12`, the zone of inhibition at 100 µg/mL with Bacillus subtilis turned out to be 11.6 mm; in [1], 12.8 mm; in the assay with Aspergillus fumigatus, 18.9 mm; in the assay on Escherichia coli it was 12.4 mm; in the assay on Aspergillus flavus, 14.8 mm; in the assay with Salmonella typhi, 12.5 mm. For the same compound, the zone of inhibition at 100 µg/mL is 13.5 mm in the assay with Aspergillus niger; 16.6 mm in the assay on Candida albicans; 12.6 mm in the assay with Staphylococcus aureus; 11.6 mm in the assay on Klebsiella pneumoniae; 14 mm in the assay with Pseudomonas aeruginosa.
Consider `Cc1cc(=O)oc2cc(OCc3cn(CCCCCN4C(=O)c5ccccc5C4=O)nn3)ccc12`, for which the zone of inhibition at 100 µg/mL in the assay on Bacillus subtilis was 13.6 mm; in assay [1] it was 12.6 mm; with Aspergillus fumigatus, 23.4 mm; with Escherichia coli it was 12.5 mm; in the assay on Aspergillus flavus, 14.5 mm; in the assay with Salmonella typhi, 12.7 mm. Moreover, the zone of inhibition at 100 µg/mL in the assay on Aspergillus niger was found to be 12.3 mm; with Candida albicans it was 16.9 mm; with Staphylococcus aureus, 12.5 mm; with Klebsiella pneumoniae, 12.6 mm; in the assay with Pseudomonas aeruginosa, 12.9 mm.
With `Cc1cc(=O)oc2cc(OCCCCN=[N+]=[N-])ccc12`, the zone of inhibition at 100 µg/mL came to 11.3 mm in the assay on Bacillus subtilis; 12.7 mm in assay [1]; 18.6 mm with Aspergillus fumigatus; 13 mm with Escherichia coli; 13.6 mm with Aspergillus flavus; 12.9 mm in the assay with Salmonella typhi. The zone of inhibition at 100 µg/mL with Aspergillus niger worked out at 13.1 mm; in the assay on Candida albicans, 19.3 mm; with Staphylococcus aureus it was 13.5 mm; in the assay on Klebsiella pneumoniae it was 12.5 mm; with Pseudomonas aeruginosa, 12.8 mm.
For the compound `Cc1cc(=O)oc2cc(OCCCCCCN=[N+]=[N-])ccc12`, the zone of inhibition at 100 µg/mL in the assay with Bacillus subtilis was determined as 12.5 mm; in [1], 13.5 mm; in the assay on Aspergillus fumigatus, 19 mm; in the assay on Escherichia coli it was 14.3 mm; in the assay with Aspergillus flavus, 16.4 mm; with Salmonella typhi it was 12.4 mm. Besides, the zone of inhibition at 100 µg/mL with Aspergillus niger stood at 13.8 mm; in the assay with Candida albicans, 18.7 mm; with Staphylococcus aureus it was 15.7 mm; with Klebsiella pneumoniae, 14.5 mm; in the assay with Pseudomonas aeruginosa, 13 mm.
